Reference: patent US20260109694A1, “HETEROCYCLIC COMPOUNDS AND USES THEREOF” (Kumquat Biosciences Inc., priority 2023, published 2026)
pIC50: −log10 of the molar value.

Experiments:
PTPN2 = molecular target: T1, PTPN2 (Homo sapiens, UniProt P17706); assay: Phosphatase activity assay (DiFMUP substrate); format: biochemical; conditions: value bin printed in column head
T1 sequence (P17706 1-415): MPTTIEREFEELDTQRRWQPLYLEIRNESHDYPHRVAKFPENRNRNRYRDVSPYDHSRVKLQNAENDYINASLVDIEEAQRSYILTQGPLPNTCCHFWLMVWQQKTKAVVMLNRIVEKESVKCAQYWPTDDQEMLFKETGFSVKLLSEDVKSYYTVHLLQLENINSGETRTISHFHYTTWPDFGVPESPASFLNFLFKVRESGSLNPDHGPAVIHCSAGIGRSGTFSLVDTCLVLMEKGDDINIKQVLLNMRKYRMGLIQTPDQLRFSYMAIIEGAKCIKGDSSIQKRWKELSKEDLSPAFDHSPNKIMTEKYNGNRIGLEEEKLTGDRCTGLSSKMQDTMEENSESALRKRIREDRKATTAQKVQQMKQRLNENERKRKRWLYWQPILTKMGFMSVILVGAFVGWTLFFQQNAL
Summary of the method: (§1)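 Each enzyme (PTPN2 at 0.025 ng/ul) was premixed ~2 min with a 10-point inhibitor series in 50 mM HEPES pH 7.5, 150 mM NaCl, 0.5 mM EDTA, 1 mM DTT, 0.001% Tween-20 at room temperature. DiFMUP was added at each enzyme's Km (~45 μM for PTPN2). DiFMU fluorescence was followed 15–30 min, and IC50 came from 4-parameter fits of initial rates.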

PTP1B = molecular target: T2, PTP1B (Homo sapiens, UniProt P18031); assay: Phosphatase activity assay (DiFMUP substrate); format: biochemical; conditions: value bin printed in column head
T2 sequence (P18031 1-435): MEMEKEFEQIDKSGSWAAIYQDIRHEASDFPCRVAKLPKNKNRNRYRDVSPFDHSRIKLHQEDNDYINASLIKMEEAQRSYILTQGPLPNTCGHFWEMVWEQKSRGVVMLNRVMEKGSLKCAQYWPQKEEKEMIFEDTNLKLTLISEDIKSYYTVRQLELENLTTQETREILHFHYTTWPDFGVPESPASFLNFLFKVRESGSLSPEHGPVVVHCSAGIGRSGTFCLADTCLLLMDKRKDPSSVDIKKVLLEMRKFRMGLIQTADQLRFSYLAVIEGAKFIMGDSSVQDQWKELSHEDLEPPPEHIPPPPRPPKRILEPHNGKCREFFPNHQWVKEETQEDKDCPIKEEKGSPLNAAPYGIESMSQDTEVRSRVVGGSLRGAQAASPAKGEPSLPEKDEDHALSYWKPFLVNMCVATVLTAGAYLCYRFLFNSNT
Summary of the method: as §1

SMILES	pIC50 (PTPN2)	pIC50 (PTP1B)
CC(C)CC[C@H]1C=C(c2ccc(O)c(N3CC(=O)NS3(=O)=O)c2F)CN1C(=O)O[C@H](C)OC(=O)C1CCCC1 [Compound 159, (R)-1-((cyclopentanecarbonyl)oxy)ethyl (S)-4-(3-(1,1-dioxido-4-oxo-1,2,5-thiadiazolidin-2-yl)-2-fluoro-4-hydroxyphenyl)-2-isopentyl-2,5-dihydro-1H-pyrrole-1-carboxylate]	< 6.00	≥ 6.00
CC(C)C(=O)OCOc1ccc(C2=C[C@@H](CCC3CCC3)NC2)c(F)c1N1CC(=O)NS1(=O)=O [Compound 160, (R)-(4-(5-(2-cyclobutylethyl)-2,5-dihydro-1H-pyrrol-3-yl)-2-(1,1-dioxido-4-oxo-1,2,5-thiadiazolidin-2-yl)-3-fluorophenoxy)methyl isobutyrate]	≥ 6.00	≥ 6.00
CC(C)C(=O)O[C@H](C)OC(=O)N1CC(c2ccc(O)c(N3CC(=O)NS3(=O)=O)c2F)=C[C@H]1CCC1CC1 [Compound 161, (S)-1-(isobutyryloxy)ethyl (R)-2-(2-cyclopropylethyl)-4-(3-(1,1-dioxido-4-oxo-1,2,5-thiadiazolidin-2-yl)-2-fluoro-4-hydroxyphenyl)-2,5-dihydro-1H-pyrrole-1-carboxylate]	≥ 6.00	≥ 6.00
CC(C)CC[C@H]1C=C(c2ccc(O)c(N3CC(=O)NS3(=O)=O)c2F)CN1C(=O)OC(OC(=O)[C@@H](N)C(C)C)C(C)C (stereo partly drawn) [Compound 162, 1-((L-valyl)oxy)-2-methylpropyl (2S)-4-(3-(1,1-dioxido-4-oxo-1,2,5-thiadiazolidin-2-yl)-2-fluoro-4-hydroxyphenyl)-2-isopentyl-2,5-dihydro-1H-pyrrole-1-carboxylate]	≥ 6.00	≥ 6.00
CC(OC(=O)C1CCCC1)OC(=O)N1CC(c2ccc(O)c(N3CC(=O)NS3(=O)=O)c2F)=C[C@H]1CCC1CCC1 (stereo partly drawn) [Compound 163, 1-((cyclopentanecarbonyl)oxy)ethyl (2R)-2-(2-cyclobutylethyl)-4-(3-(1,1-dioxido-4-oxo-1,2,5-thiadiazolidin-2-yl)-2-fluoro-4-hydroxyphenyl)-2,5-dihydro-1H-pyrrole-1-carboxylate]	≥ 6.00	≥ 6.00
CC(=O)OC(C)OC(=O)N1CC(c2ccc(O)c(N3CC(=O)NS3(=O)=O)c2F)=C[C@H]1CCC1CCC1 (stereo partly drawn) [Compound 164, 1-acetoxyethyl (2R)-2-(2-cyclobutylethyl)-4-(3-(1,1-dioxido-4-oxo-1,2,5-thiadiazolidin-2-yl)-2-fluoro-4-hydroxyphenyl)-2,5-dihydro-1H-pyrrole-1-carboxylate]	≥ 6.00	≥ 6.00
CC(C)CC[C@H]1C=C(c2ccc(O)c(N3CC(=O)NS3(=O)=O)c2F)CN1C(=O)OC(C)OC(=O)C(C)C (stereo partly drawn) [Compound 165, 1-(isobutyryloxy)ethyl (2S)-4-(3-(1,1-dioxido-4-oxo-1,2,5-thiadiazolidin-2-yl)-2-fluoro-4-hydroxyphenyl)-2-isopentyl-2,5-dihydro-1H-pyrrole-1-carboxylate]	≥ 6.00	≥ 6.00
CC(C)OC(=O)N1CC(c2ccc(O)c(N3CC(=O)NS3(=O)=O)c2F)=C[C@H]1CCC1CCC1 [Compound 166, isopropyl (R)-2-(2-cyclobutylethyl)-4-(3-(1,1-dioxido-4-oxo-1,2,5-thiadiazolidin-2-yl)-2-fluoro-4-hydroxyphenyl)-2,5-dihydro-1H-pyrrole-1-carboxylate]	≥ 6.00	≥ 6.00
